In patent publication US9062324B2, “Herbicide tolerant soybean plants and methods for identifying same” (M.S. TECHNOLOGIES LLC, priority 2009, dated 2015):

Experiments:
[1] = system: soybean plants comprising EE-GM3; experiment: field trials of EE-GM3 in different commercial genetic backgrounds, herbicide challenge; assay type: in vivo, Glycine max; conditions: glyphosate and/or isoxaflutole, different treatments, different locations and genetic backgrounds
From the text: The selected event EE-GM3 was introduced in different commercial genetic backgrounds, and results of field trials on different locations were compared. Plants were challenged with glyphosate herbicide and/or isoxaflutole herbicide using different treatments. […] Hundreds of different soybean cultivars containing event EE-GM3 were used in an inheritance study, and herbicides were applied. Selected lines from this trial were later increased in the field and also treated with herbicide. From that trial, 50 selected lines were increased, and these were also herbicide treated.

[2] = system: soybean plants comprising EE-GM3 and EE-GM2; experiment: field trial of lines combining EE-GM3 and EE-GM2 sprayed with glyphosate and glufosinate; assay type: in vivo, Glycine max; conditions: approximately 40 lines homozygous for tolerance to both herbicides
From the text: A soybean plant containing a combination of elite events EE-GM3 and EE-GM2 has been obtained by conventional crossing between a parent soybean plant comprising EE-GM3 and a parent soybean plant comprising EE-GM2. Progeny plants comprising both events are identified using PCR Identification Protocols for EE-GM2 and EE-GM3 as described herein. Specifically, crosses were made with plants containing EE-GM3 and plants containing EE-GM2. The resulting F1 plants were crossed to 4 conventional lines. The F1s from these crosses were grown in the field and sprayed with glyphosate and glufosinate. F2 seed harvested from F1 plants resistant to both herbicides was then planted. The F2 plants were sprayed with both glyphosate and glufosinate. Nine hundred plants tolerant to both herbicides were harvested and planted in a field trial. Expected Mendelian segregation data for the events was obtained in this trial. Approximately 40 lines homozygous for tolerance to both herbicides were selected for agronomic uniformity for further studies.

Row | Structure (SMILES) | herbicide tolerance of plants [1] | tolerance of selected homozygous lines to herbicide [2]
1 | CS(=O)(=O)c1cc(C(F)(F)F)ccc1C(=O)c1cnoc1C1CC1 [IFT, (5-cyclopropyl-4-isoxazolyl)[2-(methylsulfonyl)-4-(trifluoromethyl)phenyl]methanone] | good herbicide tolerance | 
2 | O=C(O)CNCP(=O)(O)O [glyphosate] | good herbicide tolerance | good tolerance
3 | CP(=O)(O)CCC(N)C(=O)O (stereo not shown) [glufosinate] |  | good tolerance
